{"source": "patent US8372967B2", "about": "“Compounds and methods for modulating expression of GCCR” (Isis Pharmaceuticals, Inc., priority 2006, dated 2013)", "note": "Strand notation (5' to 3'): a small letter for the sugar, then the base; units joined by * are phosphorothioate-linked, units joined directly phosphodiester-linked; [ ] holds rarer units or linkages, { } end groups; capitals alone tell only the bases. e = 2'-O-(2-methoxyethyl) (MOE); [5mC] = 5-methylcytosine; d = 2'-deoxy (DNA)", "data": [{"test_system": "PTP1B mRNA", "assay": "Dose response for human PTP1B in HuVEC cells, PPS 198 and PPS 3000 (Tables 86, 87)", "assay_type": "cell-based", "details": "PPS 198, 1.11 nM", "protocol": "(§1) Human vascular endothelial (HuVEC) cells were plated at a density of 5000 cells per well and treated as described herein with nM concentrations of short antisense compound as indicated in Table 86. After the treatment period, RNA was isolated from the cells and PTP1B mRNA levels were measured by quantitative real-time PCR, as described herein. PTP1B mRNA levels were adjusted according to total RNA content as measured by RIBOGREEN®. Two different human PTP1B primer probe sets were used to measure mRNA levels. Results with Primer Probe Set (PPS) 198 are shown in Table 86, and results with Primer Probe Set (PPS) 3000 are shown in Table 87. Results are presented as percent inhibition of PTP1B mRNA expression relative to untreated control cells.", "units": {"% Inhibition": "%"}, "values": [{"substance": "399173 (eA*eT*dG*d[5mC]*dT*dA*dG*dT*dG*d[5mC]*dA*d[5mC]*eT*eA; antisense) [compound 399173]", "% Inhibition": 0}, {"substance": "399208 (eA*eG*d[5mC]*dT*d[5mC]*dG*d[5mC]*dT*dA*d[5mC]*d[5mC]*dT*e[5mC]*eT; antisense) [compound 399208]", "% Inhibition": 0}, {"substance": "399276 (eG*eA*dG*dG*dT*dA*dT*d[5mC]*d[5mC]*d[5mC]*dA*dT*e[5mC]*eT; antisense) [compound 399276]", "% Inhibition": 0}, {"substance": "399315 (antisense eG*eG*d[5mC]*dA*dA*d[5mC]*dT*dT*d[5mC]*dA*dA*d[5mC]*e[5mC]*eT) [compound 399315]", "% Inhibition": 0}]}, {"test_system": "PTP1B mRNA", "assay": "Dose response for human PTP1B in HuVEC cells, PPS 198 and PPS 3000 (Tables 86, 87)", "assay_type": "cell-based", "details": "PPS 198, 3.33 nM", "protocol": "as §1", "units": {"% Inhibition": "%"}, "values": [{"substance": "399173 (eA*eT*dG*d[5mC]*dT*dA*dG*dT*dG*d[5mC]*dA*d[5mC]*eT*eA; antisense) [compound 399173]", "% Inhibition": 24}, {"substance": "399208 (eA*eG*d[5mC]*dT*d[5mC]*dG*d[5mC]*dT*dA*d[5mC]*d[5mC]*dT*e[5mC]*eT; antisense) [compound 399208]", "% Inhibition": 37}, {"substance": "399276 (eG*eA*dG*dG*dT*dA*dT*d[5mC]*d[5mC]*d[5mC]*dA*dT*e[5mC]*eT; antisense) [compound 399276]", "% Inhibition": 8}, {"substance": "399315 (antisense eG*eG*d[5mC]*dA*dA*d[5mC]*dT*dT*d[5mC]*dA*dA*d[5mC]*e[5mC]*eT) [compound 399315]", "% Inhibition": 20}]}, {"test_system": "PTP1B mRNA", "assay": "Dose response for human PTP1B in HuVEC cells, PPS 198 and PPS 3000 (Tables 86, 87)", "assay_type": "cell-based", "details": "PPS 198, 10.0 nM", "protocol": "as §1", "units": {"% Inhibition": "%"}, "values": [{"substance": "399173 (eA*eT*dG*d[5mC]*dT*dA*dG*dT*dG*d[5mC]*dA*d[5mC]*eT*eA; antisense) [compound 399173]", "% Inhibition": 63}, {"substance": "399208 (eA*eG*d[5mC]*dT*d[5mC]*dG*d[5mC]*dT*dA*d[5mC]*d[5mC]*dT*e[5mC]*eT; antisense) [compound 399208]", "% Inhibition": 86}, {"substance": "399276 (eG*eA*dG*dG*dT*dA*dT*d[5mC]*d[5mC]*d[5mC]*dA*dT*e[5mC]*eT; antisense) [compound 399276]", "% Inhibition": 61}, {"substance": "399315 (antisense eG*eG*d[5mC]*dA*dA*d[5mC]*dT*dT*d[5mC]*dA*dA*d[5mC]*e[5mC]*eT) [compound 399315]", "% Inhibition": 68}]}, {"test_system": "PTP1B mRNA", "assay": "Dose response for human PTP1B in HuVEC cells, PPS 198 and PPS 3000 (Tables 86, 87)", "assay_type": "cell-based", "details": "PPS 198, 30.0 nM", "protocol": "as §1", "units": {"% Inhibition": "%"}, "values": [{"substance": "399173 (eA*eT*dG*d[5mC]*dT*dA*dG*dT*dG*d[5mC]*dA*d[5mC]*eT*eA; antisense) [compound 399173]", "% Inhibition": 89}, {"substance": "399208 (eA*eG*d[5mC]*dT*d[5mC]*dG*d[5mC]*dT*dA*d[5mC]*d[5mC]*dT*e[5mC]*eT; antisense) [compound 399208]", "% Inhibition": 93}, {"substance": "399276 (eG*eA*dG*dG*dT*dA*dT*d[5mC]*d[5mC]*d[5mC]*dA*dT*e[5mC]*eT; antisense) [compound 399276]", "% Inhibition": 89}, {"substance": "399315 (antisense eG*eG*d[5mC]*dA*dA*d[5mC]*dT*dT*d[5mC]*dA*dA*d[5mC]*e[5mC]*eT) [compound 399315]", "% Inhibition": 88}]}, {"test_system": "PTP1B mRNA", "assay": "Dose response for human PTP1B in HuVEC cells, PPS 198 and PPS 3000 (Tables 86, 87)", "assay_type": "cell-based", "details": "PPS 3000, 1.11 nM", "protocol": "as §1", "units": {"% Inhibition": "%"}, "values": [{"substance": "399173 (eA*eT*dG*d[5mC]*dT*dA*dG*dT*dG*d[5mC]*dA*d[5mC]*eT*eA; antisense) [compound 399173]", "% Inhibition": 0}, {"substance": "399208 (eA*eG*d[5mC]*dT*d[5mC]*dG*d[5mC]*dT*dA*d[5mC]*d[5mC]*dT*e[5mC]*eT; antisense) [compound 399208]", "% Inhibition": 0}, {"substance": "399276 (eG*eA*dG*dG*dT*dA*dT*d[5mC]*d[5mC]*d[5mC]*dA*dT*e[5mC]*eT; antisense) [compound 399276]", "% Inhibition": 0}, {"substance": "399315 (antisense eG*eG*d[5mC]*dA*dA*d[5mC]*dT*dT*d[5mC]*dA*dA*d[5mC]*e[5mC]*eT) [compound 399315]", "% Inhibition": 0}]}, {"test_system": "PTP1B mRNA", "assay": "Dose response for human PTP1B in HuVEC cells, PPS 198 and PPS 3000 (Tables 86, 87)", "assay_type": "cell-based", "details": "PPS 3000, 3.33 nM", "protocol": "as §1", "units": {"% Inhibition": "%"}, "values": [{"substance": "399173 (eA*eT*dG*d[5mC]*dT*dA*dG*dT*dG*d[5mC]*dA*d[5mC]*eT*eA; antisense) [compound 399173]", "% Inhibition": 11}, {"substance": "399208 (eA*eG*d[5mC]*dT*d[5mC]*dG*d[5mC]*dT*dA*d[5mC]*d[5mC]*dT*e[5mC]*eT; antisense) [compound 399208]", "% Inhibition": 47}, {"substance": "399276 (eG*eA*dG*dG*dT*dA*dT*d[5mC]*d[5mC]*d[5mC]*dA*dT*e[5mC]*eT; antisense) [compound 399276]", "% Inhibition": 14}, {"substance": "399315 (antisense eG*eG*d[5mC]*dA*dA*d[5mC]*dT*dT*d[5mC]*dA*dA*d[5mC]*e[5mC]*eT) [compound 399315]", "% Inhibition": 25}]}, {"test_system": "PTP1B mRNA", "assay": "Dose response for human PTP1B in HuVEC cells, PPS 198 and PPS 3000 (Tables 86, 87)", "assay_type": "cell-based", "details": "PPS 3000, 10.0 nM", "protocol": "as §1", "units": {"% Inhibition": "%"}, "values": [{"substance": "399173 (eA*eT*dG*d[5mC]*dT*dA*dG*dT*dG*d[5mC]*dA*d[5mC]*eT*eA; antisense) [compound 399173]", "% Inhibition": 59}, {"substance": "399208 (eA*eG*d[5mC]*dT*d[5mC]*dG*d[5mC]*dT*dA*d[5mC]*d[5mC]*dT*e[5mC]*eT; antisense) [compound 399208]", "% Inhibition": 85}, {"substance": "399276 (eG*eA*dG*dG*dT*dA*dT*d[5mC]*d[5mC]*d[5mC]*dA*dT*e[5mC]*eT; antisense) [compound 399276]", "% Inhibition": 64}, {"substance": "399315 (antisense eG*eG*d[5mC]*dA*dA*d[5mC]*dT*dT*d[5mC]*dA*dA*d[5mC]*e[5mC]*eT) [compound 399315]", "% Inhibition": 71}]}, {"test_system": "PTP1B mRNA", "assay": "Dose response for human PTP1B in HuVEC cells, PPS 198 and PPS 3000 (Tables 86, 87)", "assay_type": "cell-based", "details": "PPS 3000, 30.0 nM", "protocol": "as §1", "units": {"% Inhibition": "%"}, "values": [{"substance": "399173 (eA*eT*dG*d[5mC]*dT*dA*dG*dT*dG*d[5mC]*dA*d[5mC]*eT*eA; antisense) [compound 399173]", "% Inhibition": 92}, {"substance": "399208 (eA*eG*d[5mC]*dT*d[5mC]*dG*d[5mC]*dT*dA*d[5mC]*d[5mC]*dT*e[5mC]*eT; antisense) [compound 399208]", "% Inhibition": 96}, {"substance": "399276 (eG*eA*dG*dG*dT*dA*dT*d[5mC]*d[5mC]*d[5mC]*dA*dT*e[5mC]*eT; antisense) [compound 399276]", "% Inhibition": 86}, {"substance": "399315 (antisense eG*eG*d[5mC]*dA*dA*d[5mC]*dT*dT*d[5mC]*dA*dA*d[5mC]*e[5mC]*eT) [compound 399315]", "% Inhibition": 93}]}, {"test_system": "PCSK9 mRNA", "assay": "not given", "assay_type": "cell-based, human", "details": "Hep3B cells, 100 nM, relative to untreated control cells, 0 = no reduction observed", "protocol": "When cells reached appropriate confluency, they were treated with oligonucleotide using LIPOFECTIN® as described. […] Cells were treated and data were obtained in duplicate or triplicate. […] Cells were harvested 16-24 hours after oligonucleotide treatment.\nPrior to quantitative PCR analysis, primer-probe sets specific to the target gene being measured were evaluated for their ability to be “multiplexed” with a GAPDH amplification reaction. After isolation the RNA is subjected to sequential reverse transcriptase (RT) reaction and real-time PCR, both of which are performed in the same well. RT and PCR reagents were obtained from Invitrogen Life Technologies (Carlsbad, Calif.). […] The RT reaction was carried out by incubation for 30 minutes at 48° C. Following a 10 minute incubation at 95° C. to activate the PLATIN 9M® Taq, 40 cycles of a two-step PCR protocol were carried out: 95° C. for 15 seconds (denaturation) followed by 60° C. for 1.5 minutes (annealing/extension).\n170 μL of RiboGreen® working reagent (RiboGreen® reagent diluted 1:350 in 10 mM Tris-HCl, 1 mM EDTA, pH 7.5) was pipetted into a 96-well plate containing 30 μL purified cellular RNA. The plate was read in a CytoFluor® 4000 (PE Applied Biosystems) with excitation at 485 nm and emission at 530 nm.\nShort antisense compounds targeted to a PCSK9 nucleic acid were tested for their effects on PCSK9 mRNA in vitro. The Isis No, gapmer motif and SEQ ID NO of each short antisense compound are shown again in Table 75. Cultured Hep3B cells were treated with 100 nM of short antisense compound. 5-10-5 MOE gapmers targeted to a PCSK9 nucleic acid were used as positive controls. After the treatment period, RNA was isolated from the cells and PCSK9 mRNA levels were measured by quantitative real-time PCR, as described herein. PCSK9 mRNA levels were adjusted according to total RNA content as measured by RIBOGREEN®. Results are presented in Table 75 as percent inhibition of PCSK9 (% Inhib), relative to untreated control cells.", "units": {"% Inhib": "%"}, "values": [{"substance": "400371 (antisense eA*eG*dT*dT*dA*d[5mC]*dA*dA*dA*dA*dG*d[5mC]*eA*eA) [compound 400371]", "% Inhib": 0}]}]}
